Tests used:
[1] = system: Cryptostegia grandiflora (Rubber vine); set-up: key: X indicates that the given herbicide is suitable for controlling the given weed; settings: cited from earlier work
[2] = system: Mimosa pigra (Mimosa); set-up: key: X indicates that the given herbicide is suitable for controlling the given weed; settings: cited from earlier work
[3] = system: Vachellia nilotica (Prickly acacia); set-up: key: X indicates that the given herbicide is suitable for controlling the given weed; settings: cited from earlier work
[4] = system: western white gum (Eucalyptus argophloia); assay: Example 2: glyphosate and hexazinone capsules, thinning trial in western white gum plantation
Method: The trial for this example was established at the HQP plantation near Jandowae on 6 Feb. 2018. The trees were planted in rows 4 m apart at 1.5 m spacing. Trees were 6-10 m tall. Trees to be maintained were marked and the other trees were treated.
Four treatments were used, with capsules as follows:
The capsules used were HPMC Size 0 Natural TR.V700 colour cap and body Vcaps (Suzhou Capsugel® Ltd, China). Capsules were hand packed using a Capsugel Profiller apparatus (https://www.capsugel.com/biopharmaceutical-products/profiller). An embodiment of apparatus 10 adapted to include handle 2201 (FIG. 17) was used to drill a hole into the stem, insert the herbicide capsule and seal with a wooden plug.
Herbicide capsules were applied to approximately 10 trees for each of the treatments. The number of capsules applied to each tree was independent of tree circumference which was measured at chest height. The tree circumferences range was from 20 to 34 centimetres. At 4 weeks, a small sample of trees were cut down with a chainsaw and cross-sections of stems containing the sites of insertion of the herbicide capsules removed. These stem pieces were returned to the laboratory and split open longitudinally through the insertion point. Tree health was assessed at 11 weeks (24 Apr. 2018) on a 0-4 scale with 0 being dead and 4 being healthy. Observations were made for evidence of flashback in untreated trees.

[5] = system: Eucalyptus spp (Box, Eucalypt); set-up: key: X indicates that the given herbicide is suitable for controlling the given weed; settings: cited from earlier work
[6] = system: Lycium ferocissium (African boxthom); set-up: key: X indicates that the given herbicide is suitable for controlling the given weed; settings: cited from earlier work
[7] = system: Parkinsonia aculeata (Parkinsonia); set-up: key: X indicates that the given herbicide is suitable for controlling the given weed; settings: cited from earlier work
[8] = system: Ailanthus altissima (Tree-of-heaven); set-up: key: X indicates that the given herbicide is suitable for controlling the given weed; settings: cited from earlier work
[9] = system: Acacia spp (Wattles); set-up: key: X indicates that the given herbicide is suitable for controlling the given weed; settings: cited from earlier work
[10] = system: Phoenix spp (Palms); set-up: key: X indicates that the given herbicide is suitable for controlling the given weed; settings: cited from earlier work
[11] = system: Tamarix aphylla (Athel pine); set-up: key: X indicates that the given herbicide is suitable for controlling the given weed; settings: cited from earlier work
[12] = system: Harungana madagarcariensis (Harungana); set-up: key: X indicates that the given herbicide is suitable for controlling the given weed; settings: cited from earlier work
[13] = system: Schinus terebinthifolius (Broad-leafed pepper tree); set-up: key: X indicates that the given herbicide is suitable for controlling the given weed; settings: cited from earlier work
[14] = system: Cascabela thevetia (Yellow oleander); set-up: key: X indicates that the given herbicide is suitable for controlling the given weed; settings: cited from earlier work
[15] = system: Rubus anglocandicans (Blackberry); set-up: key: X indicates that the given herbicide is suitable for controlling the given weed; settings: cited from earlier work
[16] = system: Chamaecytisus palmensis (Tree lucerne); set-up: key: X indicates that the given herbicide is suitable for controlling the given weed; settings: cited from earlier work
[17] = system: Lantana camara (Lantana); set-up: key: X indicates that the given herbicide is suitable for controlling the given weed; settings: cited from earlier work
[18] = system: Jatropha gossypiifolia (Bellyache bush); set-up: key: X indicates that the given herbicide is suitable for controlling the given weed; settings: cited from earlier work
[19] = system: Ligustrum sinense (Chinese privet); set-up: key: X indicates that the given herbicide is suitable for controlling the given weed; settings: cited from earlier work
[20] = system: Ligustrum lucidum (Broad leaf privet); set-up: key: X indicates that the given herbicide is suitable for controlling the given weed; settings: cited from earlier work
[21] = system: Senna pendula (Winter senna); set-up: key: X indicates that the given herbicide is suitable for controlling the given weed; settings: cited from earlier work
[22] = system: Caesalpinia decapetala (Thorny poinciana); set-up: key: X indicates that the given herbicide is suitable for controlling the given weed; settings: cited from earlier work
[23] = system: Angophora spp (Apple); set-up: key: X indicates that the given herbicide is suitable for controlling the given weed; settings: cited from earlier work
[24] = system: Bursaria spinosa (Australian blackthorn); set-up: key: X indicates that the given herbicide is suitable for controlling the given weed; settings: cited from earlier work
[25] = system: Solanum mauritianum (Wild tobacco tree); set-up: key: X indicates that the given herbicide is suitable for controlling the given weed; settings: cited from earlier work
[26] = system: Leptospermum spp. (Tea trees); set-up: key: X indicates that the given herbicide is suitable for controlling the given weed; settings: cited from earlier work
[27] = system: Salix species (Willows); set-up: key: X indicates that the given herbicide is suitable for controlling the given weed; settings: cited from earlier work
[28] = system: Senegalia catechu (Cutch tree); set-up: key: X indicates that the given herbicide is suitable for controlling the given weed; settings: cited from earlier work
[29] = system: Azadirachta indica (Neem); set-up: key: X indicates that the given herbicide is suitable for controlling the given weed; settings: cited from earlier work
[30] = system: Ziziphus mauritania (Chinee apple); set-up: key: X indicates that the given herbicide is suitable for controlling the given weed; settings: cited from earlier work
[31] = system: Leucaena leucocephala (Leucaena); set-up: key: X indicates that the given herbicide is suitable for controlling the given weed; settings: cited from earlier work
[32] = system: Atalaya hemiglauca (Whitewood); set-up: key: X indicates that the given herbicide is suitable for controlling the given weed; settings: cited from earlier work
[33] = system: Calotropis procera (Rubber bush); set-up: key: X indicates that the given herbicide is suitable for controlling the given weed; settings: cited from earlier work
[34] = system: Eremophila mitchellii (False sandalwood); set-up: key: X indicates that the given herbicide is suitable for controlling the given weed; settings: cited from earlier work
[35] = system: Planchonia careya (Cocky apple); set-up: key: X indicates that the given herbicide is suitable for controlling the given weed; settings: cited from earlier work
[36] = system: Melalauca spp; set-up: key: X indicates that the given herbicide is suitable for controlling the given weed; settings: cited from earlier work
[37] = system: Vachellia famesiana (Mimosa bush); set-up: key: X indicates that the given herbicide is suitable for controlling the given weed; settings: cited from earlier work
[38] = system: Olea europea sbsp africana (African olive); set-up: key: X indicates that the given herbicide is suitable for controlling the given weed; settings: cited from earlier work
[39] = system: Acer negudo (Box elder); set-up: key: X indicates that the given herbicide is suitable for controlling the given weed; settings: cited from earlier work
[40] = system: Olea europea sbsp europa (European olive); set-up: key: X indicates that the given herbicide is suitable for controlling the given weed; settings: cited from earlier work
[41] = system: Cinnamonum camphora (Camphor laurel); set-up: key: X indicates that the given herbicide is suitable for controlling the given weed; settings: cited from earlier work
[42] = system: Cestrum parqui (Green cestrum); set-up: key: X indicates that the given herbicide is suitable for controlling the given weed; settings: cited from earlier work
[43] = system: Banksia spp (Bottlebrush); set-up: key: X indicates that the given herbicide is suitable for controlling the given weed; settings: cited from earlier work
[44] = system: Crataegus sinaica (Azarola); set-up: key: X indicates that the given herbicide is suitable for controlling the given weed; settings: cited from earlier work
[45] = system: Ricinus communis (Castor oil plant); set-up: key: X indicates that the given herbicide is suitable for controlling the given weed; settings: in vivo; cited from earlier work
[46] = system: Prosopis spp (Mesquite); set-up: key: X indicates that the given herbicide is suitable for controlling the given weed; settings: cited from earlier work

Structure (SMILES): COc1c(Cl)ccc(Cl)c1C(=O)O [Dicamba]
- suitability of herbicide for control of weed [1]: X
- suitability of herbicide for control of weed [2]: X

Structure (SMILES): CN(C)C(=O)Nc1ccc(Cl)c(Cl)c1 [Diuron]
- suitability of herbicide for control of weed [3]: X

Structure (SMILES): CN(C)c1nc(=O)n(C2CCCCC2)c(=O)n1C [Hexazinone]
- trees died / killed (health rating 0-4 scale, 0 dead) ([4]; Eucalyptus argophloia, 11 weeks post treatment, 1 or 2 capsules per tree): only a small percentage of trees killed
- plant health (yellowing of the foliage) ([4]; Eucalyptus argophloia, 11 weeks, 1 or 2 capsules per tree): obvious deterioration in plant health
- flashback in the trees marked for retention ([4]; in vivo): no flashback was observed
- suitability of herbicide for control of weed [5]: X
- suitability of herbicide for control of weed [3]: X
- suitability of herbicide for control of weed [6]: X
- suitability of herbicide for control of weed [1]: X
- suitability of herbicide for control of weed [7]: X
- suitability of herbicide for control of weed [8]: X
- suitability of herbicide for control of weed [9]: X

Structure (SMILES): CC(C)C1(C)N=C(c2ncccc2C(=O)O)NC1=O (stereo not drawn) [Imazapyr]
- suitability of herbicide for control of weed [10]: X
- suitability of herbicide for control of weed [1]: X
- suitability of herbicide for control of weed [11]: X
- suitability of herbicide for control of weed [8]: X
- suitability of herbicide for control of weed [12]: X
- suitability of herbicide for control of weed [13]: X
- suitability of herbicide for control of weed [14]: X

Structure (SMILES): COC(=O)c1ccccc1S(=O)(=O)NC(=O)Nc1nc(C)nc(OC)n1 [Metsulfuron-methyl]
- suitability of herbicide for control of weed [15]: X
- suitability of herbicide for control of weed [5]: X
- suitability of herbicide for control of weed [16]: X
- suitability of herbicide for control of weed [17]: X
- suitability of herbicide for control of weed [18]: X
- suitability of herbicide for control of weed [19]: X
- suitability of herbicide for control of weed [1]: X
- suitability of herbicide for control of weed [2]: X
- suitability of herbicide for control of weed [8]: X
- suitability of herbicide for control of weed [12]: X
- suitability of herbicide for control of weed [20]: X
- suitability of herbicide for control of weed [21]: X
- suitability of herbicide for control of weed [22]: X
- suitability of herbicide for control of weed [23]: X
- suitability of herbicide for control of weed [24]: X
- suitability of herbicide for control of weed [9]: X

Structure (SMILES): Nc1c(Cl)c(Cl)nc(C(=O)O)c1Cl [Picloram]
- suitability of herbicide for control of weed [15]: X
- suitability of herbicide for control of weed [16]: X
- suitability of herbicide for control of weed [25]: X
- suitability of herbicide for control of weed [17]: X
- suitability of herbicide for control of weed [26]: X
- suitability of herbicide for control of weed [6]: X
- suitability of herbicide for control of weed [27]: X
- suitability of herbicide for control of weed [28]: X
- suitability of herbicide for control of weed [29]: X
- suitability of herbicide for control of weed [13]: X
- suitability of herbicide for control of weed [30]: X
- suitability of herbicide for control of weed [31]: X
- suitability of herbicide for control of weed [20]: X
- suitability of herbicide for control of weed [9]: X

Structure (SMILES): CNC(=O)N(C)c1nnc(C(C)(C)C)s1 [Tebuthiuron]
- suitability of herbicide for control of weed [32]: X
- suitability of herbicide for control of weed [33]: X
- suitability of herbicide for control of weed [3]: X
- suitability of herbicide for control of weed [34]: X
- suitability of herbicide for control of weed [17]: X
- suitability of herbicide for control of weed [35]: X
- suitability of herbicide for control of weed [6]: X
- suitability of herbicide for control of weed [1]: X
- suitability of herbicide for control of weed [2]: X
- suitability of herbicide for control of weed [7]: X
- suitability of herbicide for control of weed [36]: X
- suitability of herbicide for control of weed [9]: X
- suitability of herbicide for control of weed [37]: X

Structure (SMILES): O=C(O)COc1nc(Cl)c(Cl)cc1Cl [Triclopyr]
- suitability of herbicide for control of weed [15]: X
- suitability of herbicide for control of weed [10]: X
- suitability of herbicide for control of weed [5]: X
- suitability of herbicide for control of weed [3]: X
- suitability of herbicide for control of weed [17]: X
- suitability of herbicide for control of weed [19]: X
- suitability of herbicide for control of weed [6]: X
- suitability of herbicide for control of weed [1]: X
- suitability of herbicide for control of weed [28]: X
- suitability of herbicide for control of weed [29]: X
- suitability of herbicide for control of weed [11]: X
- suitability of herbicide for control of weed [38]: X
- suitability of herbicide for control of weed [39]: X
- suitability of herbicide for control of weed [8]: X
- suitability of herbicide for control of weed [40]: X
- suitability of herbicide for control of weed [13]: X
- suitability of herbicide for control of weed [41]: X
- suitability of herbicide for control of weed [42]: X
- suitability of herbicide for control of weed [43]: X
- suitability of herbicide for control of weed [44]: X
- suitability of herbicide for control of weed [30]: X
- suitability of herbicide for control of weed [45]: X
- suitability of herbicide for control of weed [20]: X
- suitability of herbicide for control of weed [23]: X
- suitability of herbicide for control of weed [46]: X
- suitability of herbicide for control of weed [24]: X
- suitability of herbicide for control of weed [9]: X
